Consider 48 compounds from US8999956B2, “N-[(het)arylalkyl)] pyrazole(thio)carboxamides and their heterosubstituted analogues” (Bayer Intellectual Property GmbH, priority 2010, dated 2015).

For data set [1], the system named is Alternaria solani. As to the kind of experiment: In vivo preventive test on Alternaria solani (tomato). To be noted: 500 ppm of active ingredient, evaluated 7 days after inoculation. The method, then: Solvent: 49 parts by weight of N,N-dimethylformamide Emulsifier: 1 part by weight of Alkylarylpolyglycolether To produce a suitable preparation of active compound, 1 part by weight of active compound is mixed with the stated amounts of solvent and emulsifier, and the concentrate is diluted with water to the desired concentration. To test for preventive activity, young plants are sprayed with the preparation of active compound at the stated rate of application. One day after this treatment, the plants are inoculated with an aqueous spore suspension of Alternaria solani.

Data set [2] concerns Pyrenophora teres. The data set can be described thus: In vivo preventive test on Pyrenophora teres (barley). To be noted: 500 ppm of active ingredient, evaluated 7-9 days after inoculation. The method, then:
Solvent: 49 parts by weight of N,N-dimethylformamide Emulsifier: 1 part by weight of alkylaryl polyglycol ether To produce a suitable preparation of active compound, 1 part by weight of active compound is mixed with the stated amounts of solvent and emulsifier, and the concentrate is diluted with water to the desired concentration. To test for preventive activity, young plants are sprayed with the preparation of active compound at the stated rate of application. One day after this treatment, the plants are inoculated with an aqueous spore suspension of Pyrenophora teres.

A short description of data set [3]: log P by HPLC on reversed-phase column (EEC Directive 79/831 Annex V.A8). In kind it is physicochemical. The method, then:
In table 1, the log P values were determined in accordance with EEC Directive 79/831 Annex V.A8 by HPLC (High Performance Liquid Chromatography) on a reversed-phase column (C18), using the method described below: Temperature: 40° C.; […]

As for `CC(CNC(=O)c1c(C(F)F)nn(C)c1Cl)Cc1ccc(Cl)c(Cl)c1` (racemic) [Example 127], the figures for the Efficacy in data set [1] and in data set [2] were 90% and 100%, respectively. Also, the logP in data set [3] is 3.87.
On to `Cn1nc(C(F)F)c(C(=O)NC(COc2ccc3ccccc3c2)C2CC2)c1F` (racemic) [Example 137], for which the Efficacy in data set [1] is recorded as 95%; in data set [2], 89%. The compound further showed a logP in data set [3] of 3.74.
For `CN(C(=O)c1c(C(F)F)nn(C)c1F)C(COc1ccccc1Cl)C1CC1` (racemic) [Example 145], in that order: 70%, 70% and 3.44.
As to `Cc1cccc(C)c1CC(C)CNC(=O)c1c(C(F)F)nn(C)c1Cl` (racemic) [Example 149], the Efficacy in data set [1] stood at 90%; in data set [2], 95%. In data set [3], this compound returned a logP of 3.63.
In data set [1], `CC(O)C1CCCCC1NC(=O)c1c(C(F)F)nn(C)c1F` (single isomer, unassigned) [Example 341] yielded an Efficacy of 80%. The same compound gave a logP in data set [3] of 1.72 isomer A.
`CN(CCCc1ccccc1)C(=O)c1c(C(F)F)nn(C)c1Cl` [Example 5] returned an Efficacy in data set [1] of 80%. Also, the logP in data set [3] was determined as 2.82.
With `CN(CCCc1ccccc1)C(=O)c1c(C(F)F)nn(C)c1F` [Example 6], the Efficacy in data set [1] amounted to 95%; in data set [2], 70%. The logP in data set [3] is 2.73.
As for `CC(CCc1ccccc1)NC(=O)c1c(C(F)F)nn(C)c1Cl` (stereo not drawn) [Example 11], the Efficacy in data set [1] was 95%; in data set [2], 100%. The same compound registered a logP in data set [3] of 3.04.
In the case of `CC(CCc1ccccc1)NC(=O)c1c(C(F)F)nn(C)c1F` (stereo not drawn) [Example 12], the Efficacy in data set [1] is given as 95%; in data set [2], 100%. In data set [3], this compound showed a logP of 2.88.
For the compound `CC(COc1ccccc1)N(C)C(=O)c1c(C(F)F)nn(C)c1F` (stereo not drawn) [Example 16], the Efficacy in data set [1] and in data set [2] was 90% each time. The compound also displayed a logP in data set [3] of 2.62.
Compound `CN(CC(NC(=O)c1c(C(F)F)nn(C)c1F)C1CC1)c1ccccc1` (stereo not drawn) [Example 17] came in with an Efficacy in data set [1] of 95%. In addition, the logP in data set [3] stood at 3.02.
For `Cn1nc(C(F)F)c(C(=O)NC(COc2ccccc2)C2CC2)c1F` (stereo not drawn) [Example 19], the figures for the Efficacy in data set [1] and in data set [2] were 95% and 89%, respectively. Moreover, the logP in data set [3] was 3.06.
For the compound `CN(C(=O)c1c(C(F)F)nn(C)c1F)C(COc1ccccc1)C1CC1` (stereo not drawn) [Example 21], the Efficacy in data set [1] is given as 90%; in data set [2] it was 80%. In data set [3], this compound returned a logP of 3.08.
Regarding `Cn1nc(C(F)F)c(C(=O)NC(CSc2ccccc2)C2CC2)c1F` (stereo not drawn) [Example 22], the Efficacy in data set [1] is on record as 95%. This compound showed a logP in data set [3] of 3.25.
As for `CN(c1ccc(Oc2ccccc2)cc1)C(CNC(=O)c1c(C(F)F)nn(C)c1Cl)C(F)(F)F` (stereo not drawn) [Example 32], the Efficacy in data set [1] was found to be 95%; in data set [2], 70%. Besides, in data set [3], the logP amounted to 4.27.
For the compound `CN(c1ccc(Oc2ccccc2)cc1)C(CNC(=O)c1c(C(F)F)nn(C)c1F)C(F)(F)F` (stereo not drawn) [Example 33], the Efficacy in data set [1] and in data set [2] was 95% each time. Moreover, the logP in data set [3] turned out to be 4.16.
In data set [1], `Cn1nc(C(F)F)c(C(=O)NCCOc2ccc(Oc3ccccc3)cc2)c1F` [Example 34] had an Efficacy of 90%. The logP in data set [3] was found to be 3.42.
Take `Cn1nc(C(F)F)c(C(=O)NCCOc2ccc(Oc3ccccc3)cc2)c1Cl` [Example 35]: in data set [2], the Efficacy turned out to be 70%. Besides, in data set [3], the logP is on record as 3.55.
Turning to `CCN(C(=O)c1c(C(F)F)nn(C)c1F)C(C)COc1ccc(C)cc1` (stereo not drawn) [Example 38], the Efficacy in data set [1] and in data set [2] was 80% throughout. In data set [3], this compound showed a logP of 3.27.
Regarding `Cc1ccc(SCC(C2CC2)N(C)C(=O)c2c(C(F)F)nn(C)c2F)cc1` (stereo not drawn) [Example 40], the results for the Efficacy in data set [1] and in data set [2] were 95% and 80%, respectively. In data set [3], this compound came in with a logP of 3.64.
In data set [2], `CCC(COc1cc(OC)ccn1)NC(=O)c1c(C(F)F)nn(C)c1Cl` (stereo not drawn) [Example 43] showed an Efficacy of 89%. Moreover, in data set [3], the logP amounted to 1.86.
As for `Cn1nc(C(F)F)c(C(=O)NC2(COc3ccc(Cl)cc3)CC2)c1F` [Example 44], in data set [1], the Efficacy stood at 100%. Also, the logP in data set [3] was found to be 3.00.
Regarding `Cn1nc(C(F)F)c(C(=O)NC2(COc3ccc(Cl)cc3)CC2)c1Cl` [Example 45], the Efficacy in data set [1] is reported as 95%. Further, the logP in data set [3] was 3.19.
Regarding `Cn1nc(C(F)F)c(C(=O)NCC(Sc2ccc(Cl)cc2)C(F)(F)F)c1F` (stereo not drawn) [Example 46], the Efficacy in data set [1] and in data set [2] was 100% throughout. In addition, in data set [3], the logP is 3.73.
In data set [1], `Cn1nc(C(F)F)c(C(=O)NCC(Sc2ccc(Cl)cc2)C(F)(F)F)c1Cl` (stereo not drawn) [Example 47] gave an Efficacy of 80%. In data set [3], this compound gave a logP of 3.89.
For the compound `Cn1nc(C(F)F)c(C(=O)NCCOc2ccc(Cl)cc2)c1F` [Example 48], the Efficacy in data set [1] is recorded as 90%. This compound came in with a logP in data set [3] of 2.78.
On to `CC(C)C(CCc1ccc(Cl)cc1)NC(=O)c1c(C(F)F)nn(C)c1Cl` (stereo not drawn) [Example 62], for which, in data set [2], the Efficacy is 80%. For the same compound, the logP in data set [3] is listed as 4.11.
Turning to `CC(C)C(CCc1ccc(Cl)cc1)NC(=O)c1c(C(F)F)nn(C)c1F` (stereo not drawn) [Example 63], the Efficacy in data set [1] and in data set [2] was 100% in each case. Further, in data set [3], the logP is listed as 3.94.
On to `CCC(COc1cc(C)cc(C)n1)NC(=O)c1c(C(F)F)nn(C)c1Cl` (stereo not drawn) [Example 67], for which the Efficacy in data set [1] is given as 70%; in data set [2], 100%. The compound further had a logP in data set [3] of 2.14.
Regarding `Cn1nc(C(F)F)c(C(=O)NCCOc2ccc(C(F)(F)F)cc2)c1F` [Example 68], in data set [2], the Efficacy turned out to be 80%. In data set [3], the logP is 3.04.
As to `Cn1nc(C(F)F)c(C(=O)NCCOc2ccc(C(F)(F)F)cc2)c1Cl` [Example 69], the Efficacy in data set [1] is 80%. In data set [3], this compound came in with a logP of 3.17.
As for `Cn1nc(C(F)F)c(C(=O)NCCOc2cccc(Oc3ccccc3)c2)c1F` [Example 74], the Efficacy in data set [1] is 95%. In data set [3], the logP worked out at 3.41.
As to `Cn1nc(C(F)F)c(C(=O)NC(C)(C)CCc2cccc(Cl)c2)c1Cl` [Example 83], the Efficacy in data set [1] and in data set [2] was 95% throughout. Also, in data set [3], the logP is 4.01.
With `Cn1nc(C(F)F)c(C(=O)NC(C)(C)CCc2cccc(Cl)c2)c1F` [Example 84], the Efficacy in data set [1] and in data set [2] was 95% throughout. Moreover, the logP in data set [3] turned out to be 3.83.
Consider `CC(CNC(=O)c1c(C(F)F)nn(C)c1Cl)Cc1cc(Cl)cc(Cl)c1` (stereo not drawn) [Example 115], for which the Efficacy was determined as 90% in data set [1] and 100% in data set [2]. Besides, the logP in data set [3] turned out to be 4.04.
Take `Cn1nc(C(F)F)c(C(=O)NC(C)(C)CCc2cccc(C(F)(F)F)c2)c1Cl` [Example 135]: the Efficacy in data set [2] came out at 90%. In data set [3], the logP was 4.11.
The like results for `CN(CCCc1ccccc1Cl)C(=O)c1c(C(F)F)nn(C)c1Cl` [Example 141] were, in that order, 90% and 3.17.
Turning to `Cn1nc(C(F)F)c(C(=O)NC(C)(C)CCc2ccccc2Cl)c1Cl` [Example 147], the Efficacy in data set [2] is 100%. Besides, the logP in data set [3] came to 3.99.
Consider `Cc1cccc(C)c1OCC(C)N(C(=O)c1c(C(F)F)nn(C)c1Cl)C1CC1` (stereo not drawn) [Example 156], for which the Efficacy in data set [1] stood at 80%; in data set [2], 95%. For the same compound, in data set [3], the logP is given as 4.15.
`Cn1nc(C(F)F)c(C(=O)NCCOc2c(F)cccc2F)c1F` [Example 159]: the Efficacy in data set [1] came to 90%. The same compound registered a logP in data set [3] of 2.44.
For `Cn1nc(C(F)F)c(C(=O)NCCOc2cc(Cl)ccc2Cl)c1Cl` [Example 170], in that order: 90% and 3.31.
The compound `Cn1nc(C(F)F)c(C(=O)NCCCc2ccc(Cl)cc2Cl)c1Cl` [Example 179] had an Efficacy in data set [2] of 100%. Moreover, the logP in data set [3] is 3.68.
As to `Cn1nc(C(F)F)c(C(=O)NC(COc2ccc(Cl)cc2Cl)C2CC2)c1Cl` (stereo not drawn) [Example 194], the Efficacy in data set [1] came to 70%. For the same compound, the logP in data set [3] is recorded as 4.18.
`CN(C(=O)c1c(C(F)F)nn(C)c1Cl)C(CSCc1ccccc1)C1CC1` (stereo not drawn) [Example 224] displayed an Efficacy in data set [1] of 70%. Besides, the logP in data set [3] was 3.62.
For `Cn1nc(C(F)F)c(C(=O)NC2CCCC2Sc2ncccn2)c1F` (stereo not drawn) [Example 258], in data set [2], the Efficacy stood at 89%. The compound also showed a logP in data set [3] of 2.17.
The like results for `Cc1cccc(OC2CCCC2NC(=O)c2c(C(F)F)nn(C)c2Cl)c1` (stereo not drawn) [Example 260] were, in that order, 70% and 3.78.
Turning to `CC(C)OC1CCCC(NC(=O)c2c(C(F)F)nn(C)c2F)C1` (stereo not drawn) [Example 325], in data set [1], the Efficacy is on record as 95%. In data set [3], the logP is reported as 2.06.
With `Cn1nc(C(F)F)c(C(=O)NC2CCCCC2C(C)(C)C)c1F` (stereo not drawn) [Example 349], the Efficacy in data set [2] is given as 95%. This compound yielded a logP in data set [3] of 3.79.
